Tests used:
[1] = target: recombinant PKM2 monomers and tetramers (Homo sapiens, UniProt P14618); format: biochemical; conditions: 100 µM FBP
PKM2 in A549 cells = PKM2 in A549 cells (Homo sapiens, UniProt P14618); experiment: Size exclusion chromatography of cell lysates; format: cell-based; conditions: 100 μM pervanadate for 10 min
PKM2 in A549 cells, sequence (P14618 2-531 limits assumed): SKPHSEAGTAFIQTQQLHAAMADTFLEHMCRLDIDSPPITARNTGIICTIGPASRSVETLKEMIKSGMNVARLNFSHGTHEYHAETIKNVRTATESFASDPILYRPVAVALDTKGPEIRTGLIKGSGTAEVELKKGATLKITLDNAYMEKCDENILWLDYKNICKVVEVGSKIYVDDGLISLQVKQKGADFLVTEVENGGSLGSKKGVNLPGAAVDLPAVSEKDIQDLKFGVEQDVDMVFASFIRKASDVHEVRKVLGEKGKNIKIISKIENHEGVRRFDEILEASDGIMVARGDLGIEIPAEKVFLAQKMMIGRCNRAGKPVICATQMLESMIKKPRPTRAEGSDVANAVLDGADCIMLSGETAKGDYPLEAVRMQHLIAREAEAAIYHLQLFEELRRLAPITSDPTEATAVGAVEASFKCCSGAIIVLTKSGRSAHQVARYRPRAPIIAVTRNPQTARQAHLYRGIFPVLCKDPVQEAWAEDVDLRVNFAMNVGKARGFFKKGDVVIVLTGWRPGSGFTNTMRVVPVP

recombinant PKM2 monomers and tetramers, sequence (P14618 whole entry): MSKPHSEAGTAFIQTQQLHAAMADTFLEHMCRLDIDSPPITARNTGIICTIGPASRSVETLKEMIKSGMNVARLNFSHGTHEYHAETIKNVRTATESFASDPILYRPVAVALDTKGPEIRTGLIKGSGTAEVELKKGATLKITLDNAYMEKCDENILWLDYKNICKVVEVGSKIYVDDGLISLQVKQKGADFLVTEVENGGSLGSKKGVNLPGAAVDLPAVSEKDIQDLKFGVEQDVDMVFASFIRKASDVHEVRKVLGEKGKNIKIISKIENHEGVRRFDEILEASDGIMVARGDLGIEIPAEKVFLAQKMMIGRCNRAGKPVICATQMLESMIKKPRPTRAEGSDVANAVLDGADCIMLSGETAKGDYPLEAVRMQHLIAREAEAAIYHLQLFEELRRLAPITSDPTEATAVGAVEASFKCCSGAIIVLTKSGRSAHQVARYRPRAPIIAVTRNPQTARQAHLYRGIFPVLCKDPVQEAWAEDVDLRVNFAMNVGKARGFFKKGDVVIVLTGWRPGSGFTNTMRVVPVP

| Compound | effect on PKM2 tetramer activity [1] | increase of activity of PKM2 monomers [1] | PKM2 subunit stoichiometry in cells after pervanadate (PKM2 in A549 cells) |
| --- | --- | --- | --- |
| O=C(COP(=O)(O)O)[C@@H](O)[C@H](O)[C@H](O)COP(=O)(O)O [FBP, fructose-1,6-bisphosphate] | minimal effects | approximately 70% |  |
| Pervanadate |  |  | disappearance of PKM2 tetramers |
